Measured values published in article PMC11292009, “Mapping protein binding sites by photoreactive fragment pharmacophores” (Communications Chemistry, 2024).
“Also recorded” adds a separate entry of the source.

System: T1, Kras G12D protein / SOS1 exchange domain
T1 construct: Cytoskeleton, Inc. (SOS1 exchange domain only) GE02
Test: Kras-SOS exchange assay (MANT-GDP)
Type: biochemical
Details: for normalized signal, Kras-SOS exchange (Figure 4c PhP072 irradiation): Php072 500 uM
Protocol: MANT-GDP loading assay: Kras^G12D protein was first buffer exchanged into low magnesium buffer (20 mM HEPES-NaOH (pH 7.5), 50 mM NaCl, 0.5 mM MgCl2) using a NAP5 column (catalog no.: 17-0583-1, Cytiva). The proteins were then incubated with 20-fold molar excess of N-methylanthraniloyl (MANT)-GDP (catalog no.: 69244, Sigma-Aldrich) in loading buffer (50 mM NaCl, 20 mM HEPES-NaOH [pH 7.5], 0.5 mM MgCl2, 10 mM EDTA, and 1 mM Dithiothreitol (DTT)) in a total volume of 200 μL at 20 °C for 90 min. The reaction was stopped by adding MgCl2 to a final concentration of 10 mM, then incubated at 20 °C for 30 min. The unbound MANT-GDP was removed using the NAP-5 column equilibrated with nucleotide exchange buffer (40 mM HEPES-NaOH (pH 7.5), 50 mM NaCl, 10 mM MgCl2, 2 mM DTT).
MANT-GDP exchange assay: First the MANT-GDP bound Kras G12D protein (in a final 1 μM molar concentration) was preincubated with the inhibitor molecules for 60 min. After the preincubation the samples were exposed to UV light for 10 min with a wavelength of 366 nm. The UV-treated MANT-GDP Kras-inhibitor mix was loaded into a black 384 well microplate. The nucleotide exchange reaction was initiated by adding 100 fold molar excess of GppNHp (catalog no.: G0635, Sigma-Aldrich), a non-hydrolyzable GTP analog and the SOS1 exchange domain (catalog no.: GE02, Cytoskeleton, Inc.) protein in 0.5 μM final concentration. The change in fluorescence intensity was measured every 30 s in room temperature for 60 min on an EnSpire plate reader (PerkinElmer, Inc.). The measured fluorescence values were fitted to a single exponential function by using GraphPad Prism 8 software.

## Cc1ncc(CO)c(CNC(=O)CCC2(C)N=N2)c1O [PhP072, Cc1ncc(CO)c(c1O)CNC(=O)CCC2(C)N=N2]
Time 30 sec
  normalized signal, Kras-SOS exchange (Figure 4c PhP072 irradiation): 0.9874
Time 60 sec
  normalized signal, Kras-SOS exchange (Figure 4c PhP072 irradiation): 0.984
Time 90 sec
  normalized signal, Kras-SOS exchange (Figure 4c PhP072 irradiation): 0.9869
Time 120 sec
  normalized signal, Kras-SOS exchange (Figure 4c PhP072 irradiation): 0.9755
Time 210 sec
  normalized signal, Kras-SOS exchange (Figure 4c PhP072 irradiation): 0.9893
Time 240 sec
  normalized signal, Kras-SOS exchange (Figure 4c PhP072 irradiation): 1.005
Time 270 sec
  normalized signal, Kras-SOS exchange (Figure 4c PhP072 irradiation): 0.9931
Time 300 sec
  normalized signal, Kras-SOS exchange (Figure 4c PhP072 irradiation): 0.9815
Time 330 sec
  normalized signal, Kras-SOS exchange (Figure 4c PhP072 irradiation): 0.9652
Time 360 sec
  normalized signal, Kras-SOS exchange (Figure 4c PhP072 irradiation): 0.9672
Time 390 sec
  normalized signal, Kras-SOS exchange (Figure 4c PhP072 irradiation): 0.9659
Time 420 sec
  normalized signal, Kras-SOS exchange (Figure 4c PhP072 irradiation): 0.9589
Time 450 sec
  normalized signal, Kras-SOS exchange (Figure 4c PhP072 irradiation): 0.9736
Time 480 sec
  normalized signal, Kras-SOS exchange (Figure 4c PhP072 irradiation): 0.978
Time 510 sec
  normalized signal, Kras-SOS exchange (Figure 4c PhP072 irradiation): 0.9558
Time 540 sec
  normalized signal, Kras-SOS exchange (Figure 4c PhP072 irradiation): 0.9578
Time 570 sec
  normalized signal, Kras-SOS exchange (Figure 4c PhP072 irradiation): 0.9776
Time 600 sec
  normalized signal, Kras-SOS exchange (Figure 4c PhP072 irradiation): 0.972
Time 630 sec
  normalized signal, Kras-SOS exchange (Figure 4c PhP072 irradiation): 0.974
Time 660 sec
  normalized signal, Kras-SOS exchange (Figure 4c PhP072 irradiation): 0.9647
Time 690 sec
  normalized signal, Kras-SOS exchange (Figure 4c PhP072 irradiation): 0.9564
Time 720 sec
  normalized signal, Kras-SOS exchange (Figure 4c PhP072 irradiation): 0.9623
Time 750 sec
  normalized signal, Kras-SOS exchange (Figure 4c PhP072 irradiation): 0.9619
Time 780 sec
  normalized signal, Kras-SOS exchange (Figure 4c PhP072 irradiation): 0.9405
Time 810 sec
  normalized signal, Kras-SOS exchange (Figure 4c PhP072 irradiation): 0.9601
Time 840 sec
  normalized signal, Kras-SOS exchange (Figure 4c PhP072 irradiation): 0.9458
Time 870 sec
  normalized signal, Kras-SOS exchange (Figure 4c PhP072 irradiation): 0.9534
Time 900 sec
  normalized signal, Kras-SOS exchange (Figure 4c PhP072 irradiation): 0.9403
Time 930 sec
  normalized signal, Kras-SOS exchange (Figure 4c PhP072 irradiation): 0.9459
Time 960 sec
  normalized signal, Kras-SOS exchange (Figure 4c PhP072 irradiation): 0.9381
Time 990 sec
  normalized signal, Kras-SOS exchange (Figure 4c PhP072 irradiation): 0.9447
Time 1020 sec
  normalized signal, Kras-SOS exchange (Figure 4c PhP072 irradiation): 0.9591
Time 1050 sec
  normalized signal, Kras-SOS exchange (Figure 4c PhP072 irradiation): 0.9368
Time 1080 sec
  normalized signal, Kras-SOS exchange (Figure 4c PhP072 irradiation): 0.9576
Time 1110 sec
  normalized signal, Kras-SOS exchange (Figure 4c PhP072 irradiation): 0.9476
Time 1140 sec
  normalized signal, Kras-SOS exchange (Figure 4c PhP072 irradiation): 0.9304
Time 1170 sec
  normalized signal, Kras-SOS exchange (Figure 4c PhP072 irradiation): 0.9558
Time 1200 sec
  normalized signal, Kras-SOS exchange (Figure 4c PhP072 irradiation): 0.9429
Time 1230 sec
  normalized signal, Kras-SOS exchange (Figure 4c PhP072 irradiation): 0.9405
Time 1260 sec
  normalized signal, Kras-SOS exchange (Figure 4c PhP072 irradiation): 0.9391
Time 1290 sec
  normalized signal, Kras-SOS exchange (Figure 4c PhP072 irradiation): 0.9393
Time 1320 sec
  normalized signal, Kras-SOS exchange (Figure 4c PhP072 irradiation): 0.944
Time 1350 sec
  normalized signal, Kras-SOS exchange (Figure 4c PhP072 irradiation): 0.9654
Time 1380 sec
  normalized signal, Kras-SOS exchange (Figure 4c PhP072 irradiation): 0.9701
Time 1410 sec
  normalized signal, Kras-SOS exchange (Figure 4c PhP072 irradiation): 0.9426
Time 1440 sec
  normalized signal, Kras-SOS exchange (Figure 4c PhP072 irradiation): 0.9472
Time 1470 sec
  normalized signal, Kras-SOS exchange (Figure 4c PhP072 irradiation): 0.9361
Time 1500 sec
  normalized signal, Kras-SOS exchange (Figure 4c PhP072 irradiation): 0.939
Time 1530 sec
  normalized signal, Kras-SOS exchange (Figure 4c PhP072 irradiation): 0.9519
Time 1560 sec
  normalized signal, Kras-SOS exchange (Figure 4c PhP072 irradiation): 0.9436
Time 1590 sec
  normalized signal, Kras-SOS exchange (Figure 4c PhP072 irradiation): 0.9444
Time 1620 sec
  normalized signal, Kras-SOS exchange (Figure 4c PhP072 irradiation): 0.9461
Time 1650 sec
  normalized signal, Kras-SOS exchange (Figure 4c PhP072 irradiation): 0.9444
Time 1680 sec
  normalized signal, Kras-SOS exchange (Figure 4c PhP072 irradiation): 0.9402
Time 1710 sec
  normalized signal, Kras-SOS exchange (Figure 4c PhP072 irradiation): 0.948
Time 1740 sec
  normalized signal, Kras-SOS exchange (Figure 4c PhP072 irradiation): 0.9364
Time 1770 sec
  normalized signal, Kras-SOS exchange (Figure 4c PhP072 irradiation): 0.939
Time 1800 sec
  normalized signal, Kras-SOS exchange (Figure 4c PhP072 irradiation): 0.9328
Time 1830 sec
  normalized signal, Kras-SOS exchange (Figure 4c PhP072 irradiation): 0.9307
Time 1860 sec
  normalized signal, Kras-SOS exchange (Figure 4c PhP072 irradiation): 0.9265
Time 1890 sec
  normalized signal, Kras-SOS exchange (Figure 4c PhP072 irradiation): 0.9579
Time 1920 sec
  normalized signal, Kras-SOS exchange (Figure 4c PhP072 irradiation): 0.9312
Time 1950 sec
  normalized signal, Kras-SOS exchange (Figure 4c PhP072 irradiation): 0.9362
Time 1980 sec
  normalized signal, Kras-SOS exchange (Figure 4c PhP072 irradiation): 0.9324
Time 2010 sec
  normalized signal, Kras-SOS exchange (Figure 4c PhP072 irradiation): 0.9475
Time 2040 sec
  normalized signal, Kras-SOS exchange (Figure 4c PhP072 irradiation): 0.9452
Time 2070 sec
  normalized signal, Kras-SOS exchange (Figure 4c PhP072 irradiation): 0.9435
Time 2100 sec
  normalized signal, Kras-SOS exchange (Figure 4c PhP072 irradiation): 0.9537
Time 2130 sec
  normalized signal, Kras-SOS exchange (Figure 4c PhP072 irradiation): 0.9458
Time 2160 sec
  normalized signal, Kras-SOS exchange (Figure 4c PhP072 irradiation): 0.9297
Time 2190 sec
  normalized signal, Kras-SOS exchange (Figure 4c PhP072 irradiation): 0.9168
Time 2220 sec
  normalized signal, Kras-SOS exchange (Figure 4c PhP072 irradiation): 0.941
Time 2250 sec
  normalized signal, Kras-SOS exchange (Figure 4c PhP072 irradiation): 0.934
Time 2280 sec
  normalized signal, Kras-SOS exchange (Figure 4c PhP072 irradiation): 0.9076
Time 2310 sec
  normalized signal, Kras-SOS exchange (Figure 4c PhP072 irradiation): 0.9404
Time 2340 sec
  normalized signal, Kras-SOS exchange (Figure 4c PhP072 irradiation): 0.9263
Time 2370 sec
  normalized signal, Kras-SOS exchange (Figure 4c PhP072 irradiation): 0.9501
Time 2400 sec
  normalized signal, Kras-SOS exchange (Figure 4c PhP072 irradiation): 0.9106
Time 2430 sec
  normalized signal, Kras-SOS exchange (Figure 4c PhP072 irradiation): 0.9173
Time 2460 sec
  normalized signal, Kras-SOS exchange (Figure 4c PhP072 irradiation): 0.928
Time 2490 sec
  normalized signal, Kras-SOS exchange (Figure 4c PhP072 irradiation): 0.9153
Time 2520 sec
  normalized signal, Kras-SOS exchange (Figure 4c PhP072 irradiation): 0.9464
Time 2550 sec
  normalized signal, Kras-SOS exchange (Figure 4c PhP072 irradiation): 0.9246
Time 2580 sec
  normalized signal, Kras-SOS exchange (Figure 4c PhP072 irradiation): 0.9142
Time 2910 sec
  normalized signal, Kras-SOS exchange (Figure 4c PhP072 irradiation): 0.92
Time 2940 sec
  normalized signal, Kras-SOS exchange (Figure 4c PhP072 irradiation): 0.9177
Time 2970 sec
  normalized signal, Kras-SOS exchange (Figure 4c PhP072 irradiation): 0.9062
Time 3000 sec
  normalized signal, Kras-SOS exchange (Figure 4c PhP072 irradiation): 0.928
Time 3030 sec
  normalized signal, Kras-SOS exchange (Figure 4c PhP072 irradiation): 0.9131
Time 3060 sec
  normalized signal, Kras-SOS exchange (Figure 4c PhP072 irradiation): 0.9065
Time 3090 sec
  normalized signal, Kras-SOS exchange (Figure 4c PhP072 irradiation): 0.9086
Time 3120 sec
  normalized signal, Kras-SOS exchange (Figure 4c PhP072 irradiation): 0.9109
Time 3150 sec
  normalized signal, Kras-SOS exchange (Figure 4c PhP072 irradiation): 0.9207
Time 3180 sec
  normalized signal, Kras-SOS exchange (Figure 4c PhP072 irradiation): 0.8921
Time 3210 sec
  normalized signal, Kras-SOS exchange (Figure 4c PhP072 irradiation): 0.9129
Time 3240 sec
  normalized signal, Kras-SOS exchange (Figure 4c PhP072 irradiation): 0.8834
Time 3270 sec
  normalized signal, Kras-SOS exchange (Figure 4c PhP072 irradiation): 0.9149
Time 3300 sec
  normalized signal, Kras-SOS exchange (Figure 4c PhP072 irradiation): 0.9074
Time 3330 sec
  normalized signal, Kras-SOS exchange (Figure 4c PhP072 irradiation): 0.9207
Prior to irradiation
  Effect on SOS1-mediated nucleotide exchange of KRas: little effect
Upon irradiation (366 nm, 10 min)
  Effect on SOS1-mediated nucleotide exchange of KRas: fully restores KRas function to the control level; also recorded: restore KRas function
